Test system: gamma 9 delta 2 T cells
Experiment: TNF release test after BrHPP stimulation
Format: cell-based, human
Conditions: for TNF alpha production (pg/ml) on 25,000 cells: 3 μM BrHPP, 24 hours, day 21; for Pg/ml of alpha TNF produced by 25 000 cells: cells formulated in HSA 4%, triplicate means
Description: Different tests were carried out on the cells obtained to evaluate their functional activity. In particular, said tests concerned the cytotoxic activity of the cells and their production of TNF. • Cytotoxicity test. For this test, the target cells were isotopically labelled with ^51Cr (10 μl of ^51Cr/1 million target cells in 24-well plates), then incubated for 1 hour at 37° C. The cells were distributed (in duplicate) at a rate of 3000 cells per well in RPMI/10% FCS (50 μl), and spontaneous and maximum release of ^51Cr were determined. Effector cells (gamma delta T cells of the invention) were then added (50 μl in RPMI/10% FCS) to each target, at the following effector/target (E/T) ratios: 30/1, 3/1, 0.3/1, and incubated for 3 to 4 hours at 37° C. Cytotoxic activity (lysis of target cells) was determined by measuring the released radioactivity on 25 μl of supernatant in a β plate counter. • TNF release test. Cells were washed twice in RPMI then cultured in 96-well plates in RPMI/10% FCS in the presence of 3 μM BrHPP for 24 hours. TNF was assayed in the supernatant using the Beckman Coulter Kit Immunotech, ref. IM 11121. IC—Results Choice of Medium
The formulated cell product was tested for functionality by the TNF release test at different time points to evaluate its stability.

CC(O)(CBr)CCOP(=O)(O)OP(=O)(O)O (stereo not shown) [BrHPP, 3-(bromomethyl)-3-butanol-1-yl-diphosphate]
TNF alpha production (pg/ml) on 25,000 cells (cells of donor D623 from fresh MNC): 1332.7 pg/mL
TNF alpha production (pg/ml) on 25,000 cells (cells of donor D623 from frozen MNC): 1442.36 pg/mL
TNF alpha production (pg/ml) on 25,000 cells (cells of donor D711 from fresh MNC): 903.3 pg/mL
TNF alpha production (pg/ml) on 25,000 cells (cells of donor D711 from frozen MNC): 1336.16 pg/mL
TNF alpha production (pg/ml) on 25,000 cells (cells of donor D762 from fresh MNC): 782.08 pg/mL
TNF alpha production (pg/ml) on 25,000 cells (cells of donor D762 from frozen MNC): 973.7 pg/mL
Pg/ml of alpha TNF produced by 25 000 cells (T = 2 h after formulation): 381.358 pg/mL
Pg/ml of alpha TNF produced by 25 000 cells (T = 4 h after formulation): 359.624 pg/mL
Pg/ml of alpha TNF produced by 25 000 cells (T = 8 h after formulation): 327.31 pg/mL
Pg/ml of alpha TNF produced by 25 000 cells (T = 22 h after formulation): 127.56 pg/mL

Source: patent US20050196385A1, “Methods for producing gamma delta t cells” (Innate Pharama, priority 2002, published 2005)
